# Reference: US20170273985A1, “TRICYCLIC DERIVATIVE” (Sunovion Pharmaceuticals Inc., priority 2014, published 2017)
# Molecular target: PDE1B (Homo sapiens, UniProt Q01064)
# Test: In vitro HTRF PDE1 inhibition assay (PDE1B)
# Assay type: biochemical
# Conditions: Table 22
# From the text: An exemplary procedure for the in vitro Homogenous Time Resolved Fluorescence assay, which can be used to determine the inhibitory action of compounds of the invention toward PDE1 or its isoforms, follows. The HTRF PDE1 assay utilized the HTRF (Homogenous Time Resolved Fluorescence) technology, which is based on the competition between unlabeled cyclic nucleotide and cyclic nucleotide labeled with XL665 for the binding to cyclic nucleotide-specific antibody labeled with cryptate. The HTRF signal is thus inversely proportional to the concentration of cyclic nucleotide being measured. Since phosphodiesterases break down cyclic nucleotides the HTRF signal was used to determine PDE activity. The Cisbio cGMP HTRF assay kit (Cat no: 62GM2PEC) was utilized. Cyclic GMP was diluted to 200 nM in HTRF assay buffer (1 mM CaCl2, 10 mM MgCl2, 10 mM Tris-HCl, 0.1% BSA, pH 7.4). 10 μl of compound or DMSO was diluted in 200 nM cyclic GMP solution and added to wells of a 96 well white plate to give 100 nM cyclic GMP in 1% DMSO final concentration. PDE (1A3, 1B or IC) was diluted to 2× working concentration in HTRF assay buffer with 2 μg/ml calmodulin, and 10 μl was added to initiate the reaction. The plate was then incubated for 45 minutes at 37° C. d2-Labelled cyclic GMP and anti-cGMP cryptate were diluted in 50 mM phosphate buffer, 0.8 M KF, 1% Triton X100, 0.2% BSA, pH 7.0. Following incubation 10 μl d2-cGMP, then 10 μl anti cGMP cryptate were added to each well and the plate was incubated for 45 minutes at room temperature. The plate was then read on Perkin Elmer Victor at 2 different FRET readings ex/emm 340 nm/665 nm and 340 nm/615 nm. Compounds having an IC50 of <1 μM, are denoted as +++. Compounds having an IC50 of 1−10 μM, are denoted as ++. Compounds having an IC50 of 10-100 μM, are denoted as +.
row,Molecule,IC50
1,CC(C)c1ncc2c(=O)n3c(nn12)N(CCc1cccc(F)c1)CCC3 [Example 44],< 1000 nM
2,"N#Cc1ccc(CCN2CCCn3c2nn2c(C4CCOCC4)ncc2c3=O)cc1 [Example 116, 4-{2-[6-Oxo-9-(tetrahydro-2H-pyran-4-yl)-3,4-dihydro-6H-imidazo[5,1-f]pyrimido[2,1-c][1,2,4]triazin-1(2H)-yl]ethyl}benzonitrile]",< 1000 nM
3,CC(C)c1ncc2c(=O)n3c(nn12)N(CCOC(F)(F)F)CCC3 [Example 22],< 1000 nM
4,CCCN1c2nn3c(C4CCOCC4)ncc3c(=O)n2CC[C@@H]1c1ccc(Cl)cc1 [Example 71],< 1000 nM
5,CC(C)c1ncc2c(=O)n3c(nn12)N(CCC1CCOCC1)CC3 [Example 4],< 1000 nM
6,COc1cccc(C2CCn3c(nn4c(C5CCCC5)ncc4c3=O)C2)c1 (stereo not shown) [Example 135],1000 to 10000 nM
7,CCCCN1CCn2c1nn1c(C3CCOCC3)ncc1c2=O [Example 53],< 1000 nM
8,CCCN1c2nn3c(C(C)C)ncc3c(=O)n2C[C@@H]1c1ccc(CC)nc1 [Example 96],1000 to 10000 nM
9,CC(C)c1ncc2c(=O)n3c(nn12)N(CC(=O)N1CCOCC1)CCC3 [Example 28],1000 to 10000 nM
10,CC(C)c1ncc2c(=O)n3c(nn12)N(CCCC1CCOCC1)CC3 [Example 5],< 1000 nM
11,N#Cc1cccc(CN2CCCn3c2nn2c(C4CCOCC4)ncc2c3=O)c1 [Example 60],< 1000 nM
12,N#Cc1ccc(CCCN2CCCn3c2nn2c(C4CCOCC4)ncc2c3=O)cc1 [Example 119],< 1000 nM
13,CC(C)c1ncc2c(=O)n3c(nn12)OC(c1ccc(Cl)cc1)CC3 (stereo not shown) [Example 127],< 1000 nM
14,CC(C)c1ncc2c(=O)n3c(nn12)OC(Cc1ccccc1)CC3 (stereo not shown) [Example 130],< 1000 nM
15,CC(C)n1ncc2c(=O)n3c(nc21)N(Cc1ccc(C#N)cc1)CC3 [Example 74],< 1000 nM
16,CC(C)n1ncc2c(=O)n3c(nc21)N(Cc1ccc(-c2cccc(F)n2)cc1)CC3 [Example 76],< 1000 nM
17,COc1ccc(CCCN2CCCn3c2nn2c(C(C)C)ncc2c3=O)cc1 [Example 50],1000 to 10000 nM
18,CCc1ccc(C2Cn3c(nn4c(C(C)C)ncc4c3=O)N2CC(C)C)cn1 (stereo not shown) [Example 99],1000 to 10000 nM
19,COCCCN1CCn2c1nn1c(C(C)C)ncc1c2=O [Example 6],< 1000 nM
20,CC(C)c1ncc2c(=O)n3c(nn12)N(CCCc1ccncc1)CCC3 [Example 39],< 1000 nM
21,CCCN1c2nn3c(C4CCOCC4)ncc3c(=O)n2C[C@H]1c1ccc(CC)nc1 [Example 91],1000 to 10000 nM
22,CC(C)c1ncc2c(=O)n3c(nn12)N(Cc1cccnc1)CCC3 [Example 36],< 1000 nM
23,CC(C)c1ncc2c(=O)n3c(nn12)N(CCCC1CCOCC1)CCC3 [Example 29],< 1000 nM

row,Molecule,IC50
1,CC1CN(CCCc2ccccn2)c2nn3c(C(C)C)ncc3c(=O)n2C1 (stereo not shown) [Example 121],< 1000 nM
2,CCCCCN1CCCn2c1nn1c(C(C)C)ncc1c2=O [Example 18],< 1000 nM
3,"2-(4-chlorophenyl)-8-isopropyl-2H-imidazo[1,5-f]oxazolo[2,3-c][1,2,4]triazin-5(3H)-one [Example 133]",< 1000 nM
4,O=c1c2cnc(C3CCOCC3)n2nc2n1CCN2CCc1ccc(F)cc1 [Example 57],< 1000 nM
5,COc1ccccc1CCCN1CCCn2c1nn1c(C(C)C)ncc1c2=O [Example 48],< 1000 nM
6,"O=c1c2cnc(C3CCCC3)n2nc2n1CCC(c1ccccc1)C2 (stereo not shown) [Example 134, 3-Cyclopentyl-7-phenyl-8,9-dihydro-6H-imidazo[5,1-f]pyrido[2,1-c][1,2,4]triazin-11(7H)-one]",1000 to 10000 nM
7,CC(C)c1ncc2c(=O)n3c(nn12)N(CCc1ccccn1)CC3 [Example 10],< 1000 nM
8,CC(C)c1ncc2c(=O)n3c(nn12)N(CCCCO)CCC3 [Example 105],< 1000 nM
9,CCCN1CCCn2c1nn1c(C(C)C)ncc1c2=O [Example 15],< 1000 nM
10,CC(C)c1ncc2c(=O)n3c(nn12)N(CCCN1CCOCC1)CCC3 [Example 27],< 1000 nM
11,CN1c2nn3c(C4CCOCC4)ncc3c(=O)n2CC1c1ccc(Cl)cc1 (racemic) [Example 68],< 1000 nM
12,"CC(C)c1ncc2c(=O)n3c(nn12)N(C(=O)CC1CCOCC1)CCC3 [Example 123, 9-Isopropyl-1-(tetrahydro-2H-pyran-4-ylacetyl)-1,2,3,4-tetrahydro-6H-imidazo[5,1-f]pyrimido[2,1-c][1,2,4]triazin-6-one]",1000 to 10000 nM
13,N#Cc1cccc(CCCN2CCCn3c2nn2c(C4CCOCC4)ncc2c3=O)c1 [Example 118],< 1000 nM
14,CC(C)c1ncnc2c(=O)n3c(nc12)N(Cc1ccc(C(F)(F)F)cc1)CC3 [Example 83],< 1000 nM
15,"CC(C)c1ncc2c(=O)n3c(nn12)N(C(=O)CCC1CCOCC1)CCC3 [Example 124, 9-Isopropyl-1-(3-(tetrahydro-2H-pyran-4-yl)propanoyl)-3,4-dihydro-1H-imidazo[1,5-f]pyrimido[2,1-c][1,2,4]triazin-6(2H)-one]",10000 to 100000 nM
16,"CC(C)c1ncc2c(=O)n3c(nn12)N(C)[C@H](c1ccc(Cl)cn1)C3 [Example 85, (S)-2-(5-Chloropyridin-2-yl)-8-isopropyl-1-methyl-2,3-dihydrodiimidazo[2,1-c:1′,5′-f][1,2,4]triazin-5(1H)-one]",< 1000 nM
17,CCc1ccc(C2Cn3c(nn4c(C5CCOCC5)ncc4c3=O)N2CC)cn1 (stereo not shown) [Example 88],< 1000 nM
18,CCc1ccc([C@@H]2Cn3c(nn4c(C5CCOCC5)ncc4c3=O)N2CC)cn1 [Example 89],1000 to 10000 nM
19,CC(C)c1ncc2c(=O)n3c(nn12)N(CCc1ccccc1F)CCC3 [Example 43],< 1000 nM
20,CC(C)c1ncc2c(=O)n3c(nn12)N(CCC1CCC(F)(F)CC1)CCC3 [Example 21],< 1000 nM
21,COc1ccc(C2Cn3c(nn4c(C5CCOCC5)ncc4c3=O)N2C)cc1 (stereo not shown) [Example 86],< 1000 nM
22,N#Cc1cccc(CCN2CCCn3c2nn2c(C4CCOCC4)ncc2c3=O)c1 [Example 117],10000 to 100000 nM

# Same assay, conditions: Table 25
row,Molecule,IC50
1,CO[C@@H](C)c1ncc2c(=O)n3c(nn12)N(CCCC(F)(F)F)CC3 [Example 230],< 1000 nM
2,O=c1c2cnn(C3CCOCC3)c2nc2n1CCCN2CCCCC(F)(F)F [Example 225],< 1000 nM
3,CC(C)(C)CCN1CCCn2c1nn1c(C3CCOCC3)ncc1c2=O [Example 186],< 1000 nM
4,O=c1c2cnn(C3CCOCC3)c2nc2n1CCN2Cc1ccc(-c2ccc(F)cn2)cc1 [Example 208],< 1000 nM
5,O=c1c2cnc(C3CCOCC3)n2nc2n1CCN2CC1CCCC1 [Example 152],< 1000 nM
6,CC(C)(C)CN1CCCn2c1nn1c(C3CCOCC3)ncc1c2=O [Example 184],< 1000 nM
7,O=c1c2cnn(C3CCOCC3)c2nc2n1CCN2CC1CCC(F)(F)CC1 [Example 210],< 1000 nM
8,O=c1c2cnn(C3CCOCC3)c2nc2n1CCCN2Cc1ccc(F)cc1 [Example 219],< 1000 nM
9,CC(C)(C)CN1CCn2c1nn1c(C3CCOCC3)ncc1c2=O [Example 175],< 1000 nM
10,CC(C)c1ncc2c(=O)n3c(nn12)N(CC1CCOCC1)CC(F)(F)C3 [Example 201],< 1000 nM
11,O=c1c2cnc(C3CCOCC3)n2nc2n1CCN2CC1CC1(F)F (racemic) [Example 176],< 1000 nM
12,CC(C)c1ncc2c(=O)n3c(nn12)N(Cc1ccc(Cl)cn1)CC3 [Example 141],< 1000 nM
13,COCCN1CCn2c1nn1c(C(C)C)ncc1c2=O [Example 139],< 1000 nM
14,"CC(C)CCN1CCn2c1nn1c(C3CCOCC3)nc(C#N)c1c2=O [Example 235, 1-(3-Methylbutyl)-5-oxo-8-(tetrahydro-2H-pyran-4-yl)-2,3-dihydro-1H,5H-diimidazo[2,1-c 5′,1′-f][1,2,4]triazine-6-carbonitrile]",1000 to 10000 nM
15,O=c1c2cnn(C3CCOCC3)c2nc2n1CCCN2Cc1ccc(C(F)(F)F)cc1 [Example 218],< 1000 nM
16,CC(C)(C)CN1CCCn2c1nc1c(cnn1C1CCOCC1)c2=O [Example 228],< 1000 nM
17,CC(C)CCN1CCCn2c1nc1c(cnn1C1CCOCC1)c2=O [Example 224],< 1000 nM
18,O=c1c2cnn(C3CCOCC3)c2nc2n1CCCN2CCCC(F)(F)F [Example 222],< 1000 nM
19,CC(C)CN1CC(F)(F)Cn2c1nn1c(C3CCOCC3)ncc1c2=O [Example 202],< 1000 nM
20,CC(C)(C)CCN1CCn2c1nc1c(cnn1C1CCOCC1)c2=O [Example 211],< 1000 nM
21,O=c1c2cnc(C3CCOCC3)n2nc2n1CCCN2CCCC(F)(F)F [Example 182],< 1000 nM
22,CC(C)n1ncc2c(=O)n3c(nc21)N(Cc1ccc(Cl)cn1)CCC3 [Example 214],< 1000 nM
23,O=c1c2cnn(C3CCOCC3)c2nc2n1CCN2CCCC(F)(F)F [Example 212],< 1000 nM
24,CC(C)CCN1CC(F)(F)Cn2c1nn1c(C3CCOCC3)ncc1c2=O [Example 203],< 1000 nM
25,O=c1c2cnc(C3CCOCC3)n2nc2n1CCN2CCOC(F)(F)F [Example 146],< 1000 nM
